# Experimental data as given in US8231858B2, “Diagnostic imaging agents with MMP inhibitory activity” (GE Healthcare Limited, priority 2003, dated 2012).
# Columns and labels:
# MMP-9 = MMP-9 (Homo sapiens, UniProt P14780); experiment: Assay for MMP-9 inhibitory activity (fluorogenic substrate); format: biochemical; conditions: MMP-9 2 nM, preincubation 37° C. for 30 min, pH 7.5
# Procedure: (§1) The synthetic broad-spectrum fluorogenic substrate (7-methoxycoumarin-4-yl) acetyl pro-Leu-Gly-Leu-(3-(2,4-dinitrophenyl)-L-2,3-diamino-propionyl)-Ala-Arg-NH2 (R & D Systems) was used to assay MMP-2 and MMP-9 activity as described previously [Huang et al J. Biol. Chem. 272 22086-22091 (1997)]. […] An aliquot (10 μl) of substrate (5 μM) was then added to […] of preincubated MMP/compound mixture, and activity was determined at 37° C. by following product release with time. The fluorescence changes were monitored using a Fusion Universal Microplate Analyzer (Packard Bioscience) with excitation and emission wavelengths set to 330 and 390 nm, respectively for MMP-2 and MMP-9. Inhibited rates were measured from the initial 10 min of the reaction profile where product release was linear with time. Nonlinear regression analysis was performed using the XMGRACE 5.18 software under linux.
# MMP-2 = target: T1, MMP-2 (Homo sapiens, UniProt P08253); experiment: Assay for MMP-2 inhibitory activity (fluorogenic substrate); format: biochemical; conditions: MMP-2 1 nM, preincubation 37° C. for 30 min, pH 7.5
# T1 sequence (P08253 110-660): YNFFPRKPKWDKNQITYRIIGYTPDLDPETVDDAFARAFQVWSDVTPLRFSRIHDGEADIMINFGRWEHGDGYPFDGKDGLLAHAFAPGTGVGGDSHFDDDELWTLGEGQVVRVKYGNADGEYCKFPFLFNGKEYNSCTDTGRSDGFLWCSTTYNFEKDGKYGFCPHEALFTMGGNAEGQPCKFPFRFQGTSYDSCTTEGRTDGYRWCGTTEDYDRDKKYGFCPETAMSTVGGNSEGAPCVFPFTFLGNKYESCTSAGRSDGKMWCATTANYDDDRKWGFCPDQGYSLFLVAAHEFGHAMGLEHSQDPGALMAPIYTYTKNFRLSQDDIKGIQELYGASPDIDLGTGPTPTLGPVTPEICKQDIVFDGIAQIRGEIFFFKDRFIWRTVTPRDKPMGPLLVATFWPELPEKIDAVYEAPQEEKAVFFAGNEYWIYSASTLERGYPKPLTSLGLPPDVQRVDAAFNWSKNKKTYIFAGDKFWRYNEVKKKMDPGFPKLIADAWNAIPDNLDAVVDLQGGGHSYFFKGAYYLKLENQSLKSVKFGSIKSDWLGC
# Procedure: as §1
# Chain of MMP-9 (P14780 94-707, species assumed): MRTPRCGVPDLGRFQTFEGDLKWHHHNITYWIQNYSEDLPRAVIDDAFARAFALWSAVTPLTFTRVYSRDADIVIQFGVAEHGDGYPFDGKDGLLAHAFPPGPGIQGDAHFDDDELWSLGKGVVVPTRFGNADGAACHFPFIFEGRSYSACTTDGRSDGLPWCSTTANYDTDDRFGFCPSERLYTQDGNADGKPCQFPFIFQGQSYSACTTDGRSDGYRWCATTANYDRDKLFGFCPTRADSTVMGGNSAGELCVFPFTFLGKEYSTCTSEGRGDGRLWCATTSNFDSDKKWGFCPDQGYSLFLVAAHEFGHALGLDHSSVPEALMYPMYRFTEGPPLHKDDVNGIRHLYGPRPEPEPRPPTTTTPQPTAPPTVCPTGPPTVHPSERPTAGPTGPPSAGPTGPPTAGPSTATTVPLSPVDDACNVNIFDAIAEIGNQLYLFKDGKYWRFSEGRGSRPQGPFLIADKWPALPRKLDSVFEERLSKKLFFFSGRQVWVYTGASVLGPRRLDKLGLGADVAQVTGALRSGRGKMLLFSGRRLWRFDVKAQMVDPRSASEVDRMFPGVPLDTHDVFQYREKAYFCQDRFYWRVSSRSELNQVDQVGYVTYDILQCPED
IC50 (MMP-9),melting point,IC50 (MMP-2),Compound
153 nM,201 to 203 °C,320 nM,CC(C)[C@H](C(=O)NO)N(Cc1cccnc1)S(=O)(=O)c1ccc(O)c(I)c1 [Compound 8]
4.6 nM,169 °C,2.5 nM,CC(C)C(C(=O)NO)N(Cc1cccnc1)S(=O)(=O)c1ccc(I)cc1 (centres unmarked) [Compound 9]
257 nM,–,57.5 nM,CC(C)[C@H](C(=O)NO)N(Cc1cccnc1)S(=O)(=O)c1ccc(O)cc1 [Compound 13]
76 nM,169 to 170 °C,16.2 nM,CC(C)[C@H](C(=O)NO)N(Cc1cccnc1)S(=O)(=O)c1ccc(Br)cc1 [Compound 14]
